Results reported in patent publication US6399316B1, “PACAP receptor protein, method for preparing said protein, and use thereof” (Takeda Chemical Industries, Ltd., priority 1994, dated 2002).

What was measured:
[1] = target: T1, Bovine PACAP receptor protein (Bos taurus, UniProt Q29627); experiment: Intracellular cyclic AMP production of bovine PACAP receptor cDNA-expressed CHO cells; assay type: cell-based; conditions: 37° C., 30 minutes, 0.2 mM 3-isobutyl-1-methylxanthine, FIG. 36
T1 construct: The complete primary structure of bovine PACAP receptor protein based on pBPR-T was deduced; expressed in transfected cells; host or cells: CHO cells, pBPR-T in pRc/CMV, G-418 selected
T1 sequence (Q29627 38-513): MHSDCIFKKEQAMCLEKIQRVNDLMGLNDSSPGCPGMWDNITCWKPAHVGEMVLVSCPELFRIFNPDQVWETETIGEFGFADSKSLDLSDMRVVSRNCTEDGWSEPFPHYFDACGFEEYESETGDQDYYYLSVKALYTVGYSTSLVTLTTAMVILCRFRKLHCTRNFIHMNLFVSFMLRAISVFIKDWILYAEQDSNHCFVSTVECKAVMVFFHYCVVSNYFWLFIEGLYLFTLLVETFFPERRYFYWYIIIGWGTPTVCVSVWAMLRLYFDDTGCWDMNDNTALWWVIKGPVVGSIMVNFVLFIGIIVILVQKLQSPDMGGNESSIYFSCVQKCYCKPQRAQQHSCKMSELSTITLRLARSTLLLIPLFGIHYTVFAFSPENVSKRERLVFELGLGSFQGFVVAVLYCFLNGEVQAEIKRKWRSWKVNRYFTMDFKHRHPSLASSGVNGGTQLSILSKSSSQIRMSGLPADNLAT
Experimental: Three days after the transformants (CHO cells) were plated on a 24-well plate, the cells were washed with Hank's buffer (composition: 8 g/l NaCl, 0.4 g/l KCl, 0.06 g/l Na2HPO4, 1.0 g/l glucose, 0.2 g/l MgSO4, 0.14 g/l CaCl2 and 0.35 g/l NaHCO3) supplemented with 0.05% BSA, and treated in the presence of 0.2 mM 3-isobutyl-1-methylxanthine at 37° C. for 1 hour. […] After the cells were washed with the above-mentioned Hank's buffer supplemented with 0.05% BSA, intracellular cyclic AMP was extracted by the use of 500 μl of Hank's buffer and 100 μl of 20% perchloric acid, and neutralized with 1.5 M KOH. The amount of cyclic AMP was assayed with a cAMP oxygen immunoassay system (BIOTRAK Amersham).

[2] = target: T1, Bovine PACAP receptor protein; experiment: Intracellular inositol phosphate of bovine PACAP receptor cDNA-expressed CHO cells; assay type: cell-based; conditions: 37° C., 20 minutes, FIG. 37
Experimental: The pathway of signal transmission of inositol phosphate well known as the pathway of signal transmission together with cyclic AMP was examined. […] One hundred microliters of 20% perchloric acid was added thereto to stop the reaction, and intracellular inositol phosphate was extracted. The extract was neutralized with 1.5 M KOH. All inositol phosphate was separated from free inositol by the use of ion exchange chromatography (AGI-X8, Bio RAD). Thereafter, inositol phosphate was eluted with 1 M ammonium formate/0.1 M formic acid, and the amount of inositol phosphate was measured with a scintillation counter.

[3] = target: T2, human PACAP receptor protein (Homo sapiens, UniProt P41586); experiment: Competitive inhibition experiment, membrane fraction of human PACAP receptor-expressed CHO-K1 cells; assay type: binding; conditions: FIG. 47
T2 construct: expressed in transfected cells; host or cells: CHO-K1 cells (ICN), pTS849 (pRc/CMV), G-418 selected
T2 sequence (P41586 21-468): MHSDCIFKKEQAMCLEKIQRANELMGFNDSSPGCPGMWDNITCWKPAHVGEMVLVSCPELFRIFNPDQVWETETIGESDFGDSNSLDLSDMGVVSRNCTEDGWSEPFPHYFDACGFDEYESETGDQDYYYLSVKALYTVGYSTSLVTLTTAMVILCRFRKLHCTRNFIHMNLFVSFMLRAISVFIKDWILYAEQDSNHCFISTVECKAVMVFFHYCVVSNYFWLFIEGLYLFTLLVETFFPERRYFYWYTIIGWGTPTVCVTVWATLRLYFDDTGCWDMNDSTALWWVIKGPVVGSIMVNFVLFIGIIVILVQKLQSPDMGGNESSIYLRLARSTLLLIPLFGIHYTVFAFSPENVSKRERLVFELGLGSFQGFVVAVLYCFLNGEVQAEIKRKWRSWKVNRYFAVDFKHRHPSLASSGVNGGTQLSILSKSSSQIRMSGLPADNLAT
Experimental: (§1) The test sample (membrane fraction or solubilized membrane protein fraction) was appropriately diluted with buffer D (20 mM Tris, 5 mM magnesium chloride, 0.1% BSA and 0.05% digitonin, pH 7.4). […] To 0.1 ml of this reaction solution, 1.5 ml of buffer E (0.1% BSA, 0.05% CHAPS, 20 mM Tris and 5 mM magnesium chloride, pH 7.4) cooled with ice was added, and immediately, the mixed solution is filtered through a glass fiber filter. […] Results of the saturation binding experiment were subjected to Scatchard plot analysis to determine the dissociation constant and the maximum binding.

[4] = target: T1, Bovine PACAP receptor protein; experiment: Competitive binding experiment, membrane fraction of bovine PACAP receptor cDNA (pBPR-T)-expressed CHO cells; conditions: 100 pM [125I]-PACAP27, 25° C., 75 minutes, FIG. 35
Experimental: The transformants (CHO cells) cultivated for 3 days after subculture were separated using 0.2 mM EDTA/phosphate buffer, and suspended in 10 mM sodium carbonate buffer supplemented with 1 mM EDTA, 0.5 mM phenylmethylsulfonyl fluoride (PMSA), 20 μg/ml leupeptin, 4 μg/ml E-64 and 1 μg/ml pepstatin. The suspended cells were disrupted with a Polytron homogenizer (Kinematica). The disrupted product was centrifuged with a high speed cooling centrifuge (CR26H, Roter RR18, Hitachi, Ltd.) at 3,000 rpm for 10 minutes to obtain a supernatant. The resulting supernatant was further ultracentrifuged with an ultracentrifuge (SCP70H, Roter RPZ35T, Hitachi, Ltd.) at 30,000 rpm for 60 minutes to obtain pellets. The resulting pellets were suspended in a buffer [20 mM Tris-HCl (pH 7.4), 0.25 M sucrose, 2 mM EDTa, 0.5 mM PMSF, 20 μg/ml leupeptin and 1 μg/ml pepstatin] to prepare a membrane fraction suspension.
Bound ligands were separated from free ligands through a glass fiber filter. […] The binding was examined with a a γ-ray counter. The dissociation constant and the maximum binding were examined by Scatchard plot analysis (FIG. 34).

[5] = target: T2, human PACAP receptor protein; experiment: Intracellular cyclic AMP of human PACAP receptor protein-expressed CHO-K1 cells; assay type: cell-based; conditions: 37° C., 30 minutes, 0.2 mM 3-isobutyl-1-methylxanthine, FIG. 48
Experimental: After washing twice with Hank's buffer containing the culture buffer, 10 mM HEPES and 0.05% BSA, the CHO-K1 cells were cultivated in the above-mentioned buffer supplemented with 0.2 mM 3-isobutyl-1-methylxanthine at 37° C. for 60 minutes. […] After absorption of the buffer, the cells were washed twice with the culture buffer. Then, cAMP was extracted from the cells with 20% perchloric acid. After transfer to a 1.5-ml Eppendorf tube, the extract was centrifuged with a Tomy microcentrifuge at 12,000 rpm for 5 minutes, and the supernatant was neutralized with 1.5 N KOH/60 mM HEPES to prepare a cell eluted solution. The concentration of cyclic AMP was determined by the acetylation method of a cAMP assay system (Amersham). Under these determination conditions, when nothing was added, the amount of intracellular CAMP was 0.7 pmole/well.

PACAP receptor = conditions: unlabeled peptide, tissue membrane fraction; cited from earlier work
[6] = target: T3, purified bovine PACAP receptor protein (Bos taurus, UniProt Q29627); experiment: Competitive binding experiment for the purified PACAP receptor protein with [125I]PACAP27; conditions: vs 100 pM [125I]PACAP27, FIG. 31
T3 construct: from tissue; host or cells: bovine cerebrum
T3 sequence (Q29627 38-513): T1 sequence (Q29627 38-513)
Experimental: as §1
Analysis results obtained by polyacrylamide electrophoresis for the final purified sample in the presence of sodium dodecylsulfate are shown in FIG. 28. […] This protein having a molecular weight of about 57,000 is the PACAP receptor protein occurring in the bovine cerebrums.

[7] = target: T4, rat PACAP receptor protein Type I-A (pRPR3-A) (Rattus norvegicus, UniProt P32215); experiment: Competitive binding with [125I]-PACAP27, membrane fraction of pRPR3-A-introduced CHO cells; conditions: 100 pM [125I]-PACAP27, 25° C., 1 hour, FIG. 40 (A)
T4 construct: pRPACAPR46 and pRPACAPR5 were recombined at the BamHI site to prepare pRPACAPR46-5 having a complete translation frame; expressed in transfected cells; host or cells: CHO cells, pRPR3-A (pRc/CMV); clone A12 for cAMP
T4 sequence (P32215 20-467 isoform P32215-5 limits assumed): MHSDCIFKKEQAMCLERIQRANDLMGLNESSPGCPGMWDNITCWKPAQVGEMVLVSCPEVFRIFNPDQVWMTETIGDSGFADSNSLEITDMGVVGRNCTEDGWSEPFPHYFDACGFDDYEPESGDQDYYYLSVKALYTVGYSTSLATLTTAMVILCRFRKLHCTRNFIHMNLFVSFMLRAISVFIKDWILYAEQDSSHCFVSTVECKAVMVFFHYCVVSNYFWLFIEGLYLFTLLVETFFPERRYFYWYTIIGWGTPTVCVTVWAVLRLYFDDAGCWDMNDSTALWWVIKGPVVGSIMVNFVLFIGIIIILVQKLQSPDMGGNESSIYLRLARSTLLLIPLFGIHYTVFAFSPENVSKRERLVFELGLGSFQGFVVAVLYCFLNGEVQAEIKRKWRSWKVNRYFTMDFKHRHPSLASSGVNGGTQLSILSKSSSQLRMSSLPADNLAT
Experimental: (§2) The pRPR3-A-introduced and pRPR4-B-introduced CHO cells obtained in (2) described above were each disrupted in sodium carbonate buffer containing 1 mM EDTA, 0.5 mM PMSF, 20 μg/ml leupeptin, 4 μg/ml E-64 and 1 μg/ml pepstatin with a Polytron homogenizer (Kinematica) to prepare membrane fractions. Using the membrane fractions, complex binding experiments were conducted. For each of the membrane fractions of the pRPR3-A-introduced CHO cells and the pRPR4-B-introduced CHO cells, each of 10 μg and 15 μg (converted to a protein amount) thereof was ligated with. […] The reaction was conducted at 25° C. for 1 hour, and bound ligands were separated from free ligands by filtration through a filter. […] The amount of bound ligands was measured with a γ-counter.

[8] = target: T4, rat PACAP receptor protein Type I-A (pRPR3-A); experiment: Intracellular cyclic AMP of rat PACAP receptor cDNA-introduced CHO cells, strain A12; assay type: cell-based; conditions: CHO strain A12, 37° C., 40 minutes, 0.5 mM IBMX, FIG. 43
Experimental: (§3) Each 48-well plate for tissue culture was inoculated with each of the cell strains. at a density of 1.0×10^5 cells/well, followed by cultivation for 3 days. The plate was washed twice with Ham's F12 medium supplemented with 0.1% BSA and 0.5 mM IBMX, and 500 μl/well of the same medium was added thereto. […] The supernatant was removed, and extraction was conducted with 100% cold ethanol. The extract was evaporated to dryness with a centrifugal freeze dryer, and redissolved in the buffer attached to an EIA kit for assaying cyclic AMP (Amersham). Then, the amount of cyclic AMP was assayed according to the formulation of the kit.

[9] = target: T5, rat PACAP receptor protein Type I-B (pRPR4-B) (Rattus norvegicus, UniProt P32215); experiment: Competitive binding with [125I]-PACAP27, membrane fraction of pRPR4-B-introduced CHO cells; conditions: 100 pM [125I]-PACAP27, 25° C., 1 hour, FIG. 40 (B)
T5 construct: two kinds of complete primary structures of rat PACAP receptor protein were deduced; expressed in transfected cells; host or cells: CHO cells, pRPR4-B (pRc/CMV); clone B17 for cAMP
T5 sequence (P32215 20-495 isoform P32215-2 limits assumed): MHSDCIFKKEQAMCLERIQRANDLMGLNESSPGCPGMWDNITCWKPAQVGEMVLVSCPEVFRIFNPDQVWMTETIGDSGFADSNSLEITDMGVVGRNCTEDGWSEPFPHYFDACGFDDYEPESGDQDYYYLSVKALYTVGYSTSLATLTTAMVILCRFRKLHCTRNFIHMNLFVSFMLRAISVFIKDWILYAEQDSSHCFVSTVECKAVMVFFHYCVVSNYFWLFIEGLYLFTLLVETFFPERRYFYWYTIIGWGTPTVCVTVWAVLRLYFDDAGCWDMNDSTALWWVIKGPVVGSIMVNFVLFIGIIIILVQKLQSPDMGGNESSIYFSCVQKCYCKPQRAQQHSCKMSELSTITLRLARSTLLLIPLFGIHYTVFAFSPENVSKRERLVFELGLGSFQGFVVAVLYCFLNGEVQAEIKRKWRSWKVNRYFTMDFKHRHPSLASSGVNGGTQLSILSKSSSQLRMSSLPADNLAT
Experimental: as §2

[10] = target: T5, rat PACAP receptor protein Type I-B (pRPR4-B); experiment: Intracellular cyclic AMP of rat PACAP receptor cDNA-introduced CHO cells, strain B17; assay type: cell-based; conditions: CHO strain B17, 37° C., 40 minutes, 0.5 mM IBMX, FIG. 43
Experimental: as §3

## PACAP27
[1]
  concentration of intracellular cyclic AMP: increased depending on the concentrations
[2]
  concentration of inositol phosphate: increased depending on the concentrations
[3]
  competition with [125I]-PACAP27: competed
[4]
  reactivity (competition with [125I]-PACAP27): high reactivity
[5]
  concentration of intracellular cAMP: increased depending on the concentrations
PACAP receptor
  inhibition of [125I]PACAP27 binding to the membrane fraction: inhibited
[6]
  reaction with purified PACAP receptor protein in competitive binding experiment: reacting

## PACAP38: pituitary adenylate cyclase activating polypeptide consisting of 38 amino acid residues, SEQ ID NO: 46-NH2
PACAP receptor
  inhibition of [125I]PACAP27 binding to the membrane fraction: inhibited

## Vasoactive intestinal peptide [VIP]
[7]
  competition with [125I]-PACAP27: competition was observed only at a concentration much higher than that of PACAP27
[8]
  production of intracellular cyclic AMP: a concentration much higher than that of the PACAPs was required
[3]
  weakness relative to PACAP27 in competitive inhibition: 1,000 times
[4]
  reactivity (competition with [125I]-PACAP27): low in reactivity
[9]
  competition with [125I]-PACAP27: competition was observed only at a concentration much higher than that of PACAP27
[5]
  concentration of intracellular cAMP: little raised
[10]
  production of intracellular cyclic AMP: a concentration much higher than that of the PACAPs was required
PACAP receptor
  inhibition of [125I]PACAP27 binding to the membrane fraction: not inhibited
[6]
  reaction with purified PACAP receptor protein in competitive binding experiment: not reacting
